The nature of data set [1]: Lipophilicity, log K of the compound. It is filed as physicochemical. To be noted: octanol/water.
Data set [2] concerns Nephotettix cincticeps. The data set can be described thus: Insecticidal activity against drug-resistant Nephotettix cincticeps Izumi (green rice leafhopper) assessed as mortality […] after 2 days by foliar spraying method. It is filed as functional. To be noted: 48 h.
In data set [3] the test system is Nephotettix cincticeps. Put plainly: Insecticidal activity against drug-susceptible Nephotettix cincticeps Ageo (green rice leafhopper) assessed as mortality […] after 2 days by foliar spraying method. It is filed as functional. As to conditions: 48 h.
Data set [4] deals with Tetranychus urticae. The data set can be described thus: Acaricidal activity against Tetranychus urticae (two-spotted spider mite) assessed as mortality at 200 ppm after 2 days by leaf dipping method. It is filed as functional. To be noted: foliar, 48 h.
Data set [5] in a line: Drug degradation in sorensen buffer assessed as hydrolysis at 3 x 10^-5 M at pH 7.4 after 24 hr. As to conditions: read-out: Drug degradation. It is filed as physicochemical.
For data set [6], the system named is Culex pipiens. The data set can be described thus: Insecticidal activity against Culex pipiens assessed as mortality at 200 ppm after 2 days by immersion method. It is filed as functional. To be noted: 48 h.
Data set [7] concerns Plutella xylostella. Put plainly: Insecticidal activity against Plutella xylostella (diamondback moth) assessed as mortality at 200 ppm after 2 days by foliar spraying method. It is filed as functional. To be noted: 48 h.
For data set [8], the system named is Nilaparvata lugens. The data set can be described thus: Insecticidal activity against Nilaparvata lugens (brown planthopper) assessed as mortality at 200 ppm after 6 days by foliar spraying method. It is filed as functional. As to conditions: 144 h.
Data set [9] relates to Nilaparvata lugens. The data set can be described thus: Insecticidal activity against Nilaparvata lugens (brown planthopper) assessed as mortality at 200 ppm after 2 days by foliar spraying method. To be noted: 48 h. It is filed as functional.
Data set [10] deals with Nephotettix cincticeps. Put plainly: Insecticidal activity against Nephotettix cincticeps Izumi (green rice leafhopper) assessed as mortality at 200 ppm after 6 days by foliar spraying method. As to conditions: 144 h. It is filed as functional.
The test system of data set [11] is Nephotettix cincticeps. Put plainly: Insecticidal activity against Nephotettix cincticeps Izumi (green rice leafhopper) assessed as mortality at 200 ppm after 2 days by foliar spraying method. It is filed as functional. To be noted: 48 h.

Each structure is given as a SMILES string.

`CC(C)CSc1cc(OS(C)(=O)=O)ncn1` [6-(ISOBUTYLTHIO)PYRIMIDIN-4-YL METHANESULFONATE]: in data set [1], the “log K” value is 0.391. Moreover, the LD50 in data set [2] and in data set [3] was greater than 100 mg/kg each time. The mortality at 200 ppm in data set [4] is less than 10%; in data set [6], 0%; in data set [7], 0%; in data set [8] it was 100%; in data set [9] it was 80%; in data set [10], 0%. Moreover, the mortality at 200 ppm in [11] was 0%. Besides, the degraded at 24 h, 30 µM in [5] is 100%.

`CC(C)CSc1cc(OS(C)(=O)=O)ccn1`: the “log K” value in data set [1] was 0.379. In addition, the LD50 in data set [2] turned out to be 66.4 mg/kg; in data set [3], 5.4 mg/kg. The mortality at 200 ppm in [4] is less than 10%; in data set [6], 100%; in data set [7] it was 70%; in data set [8], 100%; in data set [9] it was 70%; in [10] it was 70%. In addition, the mortality at 200 ppm in data set [11] came to 30%. In addition, the degraded at 24 h, 30 µM in data set [5] was determined as 5.9%.

Values taken from ChEMBL document CHEMBL3044895, “Insecticidal and Antiacetyicholinesterase Activities of Isobutylthioaryl Methanesulfonates” (J Pestic Sci, 1991).
